Converted amounts (≈) assume the structure as drawn. The source made the active and inactive calls. How the calls were made is not given here.
Key:
Streptococcus mutans [1] = assay: Bactericidal activity against Streptococcus mutans UA159 assessed as reduction in bacterial growth at 100 uM after 24 hrs; format: functional, organism-based
Streptococcus mutans [2] = assay: Antibiofilm activity against Streptococcus mutans UA159 assessed as inhibition of biofilm formation by serial dilution method; format: functional, organism-based
[3] = Solubility of compound in water; format: physicochemical
[4] = Streptococcus mutans, UA159, read-out: IC50

Structure (SMILES)	IC50 (Streptococcus mutans [2]; [4])	solubility ([3]; buffer)	IC50 (Streptococcus mutans [2])	solubility ([3]; water, read-out: solubility)	Activity (Streptococcus mutans [1])
COC(=O)c1ccccc1NC(=O)c1cc2cc([N+](=O)[O-])ccc2s1	> 300 µM	–	–	–	inactive
NC(=O)c1cccc(NC(=O)c2cccc3ccccc23)c1	–	–	–	10 µg/mL (≈ 34.4 µM)	inactive
NCc1ccccc1NC(=O)c1ccc2ccccc2n1	202 µM	–	–	25 µg/mL (≈ 90.1 µM)	inactive
NCc1ccccc1NC(=O)c1cccc2ccccc12	224 µM	–	–	25 µg/mL (≈ 90.5 µM)	inactive
O=C(Nc1ccccc1)c1ccc2ccccc2n1	> 300 µM	–	–	25 µg/mL (≈ 101 µM)	inactive
NC(=O)c1ccc(NC(=O)c2ccc3ccccc3n2)cc1	54.4 µM	–	–	5 µg/mL (≈ 17.2 µM)	inactive
COC(=O)c1cccc(NC(=O)c2cnc3ccccc3c2)c1	–	–	–	–	inactive
COc1ccc2[nH]c(C(=O)Nc3cccc(C(N)=O)c3)cc2c1	56.6 µM	–	–	5 µg/mL (≈ 16.2 µM)	inactive
COC(=O)c1ccccc1NC(=O)c1ccc2ccccc2c1	–	–	–	25 µg/mL (≈ 81.9 µM)	inactive
NC(=O)c1cccc(NC(=O)c2cc3cc([N+](=O)[O-])ccc3o2)c1	38.8 µM	–	–	20 µg/mL (≈ 61.5 µM)	inactive
O=C(Nc1ccccc1)c1cccc2ccccc12	> 300 µM	–	–	–	inactive
NC(=O)c1cccc(NC(=O)c2ccc3ccccc3n2)c1	–	–	–	10 µg/mL (≈ 34.3 µM)	inactive
NC(=O)c1ccc(NC(=O)c2ccc(-c3ccccc3)cc2)cc1	> 300 µM	–	–	< 5 µg/mL	inactive
CC(C)(C)OC(=O)NCc1ccccc1NC(=O)c1ccc2ccccc2c1	56.8 µM	–	–	–	inactive
COC(=O)c1ccccc1NC(=O)c1ccc2ccccc2n1	89.5 µM	–	–	< 5 µg/mL	inactive
COC(=O)c1cccc(NC(=O)c2ccc3ccccc3c2)c1	> 300 µM	–	–	5 µg/mL (≈ 16.4 µM)	inactive
NC(=O)c1cccc(NC(=O)c2ccc3ccccc3c2)c1	240 µM	–	–	< 5 µg/mL	inactive
COC(=O)c1cccc(NC(=O)c2cc3cc([N+](=O)[O-])ccc3s2)c1	54.4 µM	–	–	25 µg/mL (≈ 70.2 µM)	inactive
O=C(Nc1ccccc1)c1cnc2ccccc2c1	> 300 µM	–	–	5 µg/mL (≈ 20.1 µM)	inactive
NC(=O)c1ccccc1NC(=O)c1cccc2ccccc12	150 µM	–	–	–	inactive
COC(=O)c1ccc(NC(=O)c2cccc3ccccc23)cc1	> 300 µM	–	–	–	inactive
COC(=O)c1cccc(NC(=O)c2cc3ccccc3s2)c1	–	–	–	–	inactive
NC(=O)c1ccc(NC(=O)c2cc3cc([N+](=O)[O-])ccc3s2)cc1	> 300 µM	–	–	–	inactive
CC(C)(C)OC(=O)NCc1ccccc1NC(=O)c1cc2cc([N+](=O)[O-])ccc2[nH]1	–	Insoluble	Nd(Insoluble)	–	inactive

Structure (SMILES)	IC50 (Streptococcus mutans [2]; [4])	solubility ([3]; buffer)	IC50 (Streptococcus mutans [2])	solubility ([3]; water, read-out: solubility)	Activity (Streptococcus mutans [1])
O=C(Nc1ccccc1)c1cc2cc([N+](=O)[O-])ccc2s1	> 300 µM	–	–	10 µg/mL (≈ 33.5 µM)	inactive
NC(=O)c1ccc(NC(=O)c2cc3cc([N+](=O)[O-])ccc3[nH]2)cc1	–	Insoluble	Nd(Insoluble)	–	inactive
COC(=O)c1ccccc1NC(=O)c1cccc2ccccc12	> 300 µM	–	–	5 µg/mL (≈ 16.4 µM)	inactive
COC(=O)c1ccc(NC(=O)c2cc3cc([N+](=O)[O-])ccc3o2)cc1	–	–	–	20 µg/mL (≈ 58.8 µM)	inactive
NC(=O)c1cccc(NC(=O)c2cc3cc([N+](=O)[O-])ccc3s2)c1	42.3 µM	–	–	25 µg/mL (≈ 73.2 µM)	inactive
COC(=O)c1ccc(NC(=O)c2ccc3ccccc3n2)cc1	–	–	–	25 µg/mL (≈ 81.6 µM)	inactive
CC(C)(C)OC(=O)NCc1ccccc1NC(=O)c1cc2ccccc2s1	43.4 µM	–	–	20 µg/mL (≈ 52.3 µM)	inactive
COC(=O)c1ccc(NC(=O)c2ccc(-c3ccccc3)cc2)cc1	> 300 µM	–	–	–	inactive
COC(=O)c1ccc(NC(=O)c2cc3cc(OC)ccc3[nH]2)cc1	–	Insoluble	Nd(Insoluble)	–	inactive
CC(C)(C)OC(=O)NCc1ccccc1NC(=O)c1cc2cc([N+](=O)[O-])ccc2o1	26.8 µM	–	–	25 µg/mL (≈ 60.8 µM)	inactive
NCc1ccccc1NC(=O)c1ccc2ccccc2c1	–	–	–	–	inactive
NCc1ccccc1NC(=O)c1cc2cc([N+](=O)[O-])ccc2[nH]1	–	–	–	–	inactive
NC(=O)c1ccccc1NC(=O)c1cc2cc([N+](=O)[O-])ccc2o1	–	–	–	5 µg/mL (≈ 15.4 µM)	inactive
O=C(Nc1ccccc1)c1cc2cc([N+](=O)[O-])ccc2o1	> 300 µM	–	–	25 µg/mL (≈ 88.6 µM)	inactive
COc1ccc2[nH]c(C(=O)Nc3ccccc3C(N)=O)cc2c1	> 300 µM	–	–	10 µg/mL (≈ 32.3 µM)	inactive
COC(=O)c1ccc(NC(=O)c2ccc3ccccc3c2)cc1	112 µM	–	–	25 µg/mL (≈ 81.9 µM)	inactive
COc1ccc2[nH]c(C(=O)Nc3ccccc3CNC(=O)OC(C)(C)C)cc2c1	–	Insoluble	Nd(Insoluble)	–	inactive
O=C(Nc1ccccc1)c1ccc(-c2ccccc2)cc1	> 300 µM	–	–	–	inactive
NC(=O)c1ccc(NC(=O)c2cc3cc([N+](=O)[O-])ccc3o2)cc1	> 300 µM	–	–	–	inactive
NCc1ccccc1NC(=O)c1cc2cc([N+](=O)[O-])ccc2s1	–	–	–	1000 µg/mL (≈ 3050 µM)	inactive
COC(=O)c1cccc(NC(=O)c2cc3cc([N+](=O)[O-])ccc3o2)c1	2.7 µM	–	–	25 µg/mL (≈ 73.5 µM)	inactive
COc1ccc2[nH]c(C(=O)Nc3ccccc3CN)cc2c1	–	Insoluble	Nd(Insoluble)	–	inactive
COC(=O)c1cccc(NC(=O)c2ccc3ccccc3n2)c1	92.3 µM	–	–	25 µg/mL (≈ 81.6 µM)	inactive

The next lines start with results.

IC50 (Streptococcus mutans [2]; [4])	solubility ([3]; buffer)	IC50 (Streptococcus mutans [2])	solubility ([3]; water, read-out: solubility)	Structure (SMILES)	Activity (Streptococcus mutans [1])
–	Insoluble	Nd(Insoluble)	–	O=C(Nc1ccccc1)c1cc2cc([N+](=O)[O-])ccc2[nH]1	inactive
142 µM	–	–	< 5 µg/mL	COC(=O)c1ccccc1NC(=O)c1cnc2ccccc2c1	inactive
105 µM	–	–	< 5 µg/mL	COC(=O)c1cccc(NC(=O)c2ccc(-c3ccccc3)cc2)c1	inactive
165 µM	–	–	10 µg/mL (≈ 34.3 µM)	NC(=O)c1ccccc1NC(=O)c1ccc2ccccc2n1	inactive
> 300 µM	–	–	–	COc1ccc2[nH]c(C(=O)Nc3ccc(C(N)=O)cc3)cc2c1	inactive
–	–	–	5 µg/mL (≈ 18 µM)	NCc1ccccc1NC(=O)c1cnc2ccccc2c1	inactive
92.3 µM	–	–	< 5 µg/mL	COC(=O)c1ccc(NC(=O)c2cnc3ccccc3c2)cc1	inactive
–	Insoluble	Nd(Insoluble)	–	COC(=O)c1ccccc1NC(=O)c1cc2cc([N+](=O)[O-])ccc2[nH]1	inactive
110 µM	–	–	< 5 µg/mL	NC(=O)c1ccc(NC(=O)c2ccc3ccccc3c2)cc1	inactive
> 300 µM	–	–	–	NC(=O)c1ccc(NC(=O)c2cnc3ccccc3c2)cc1	inactive
–	Insoluble	Nd(Insoluble)	–	COC(=O)c1cccc(NC(=O)c2cc3cc(OC)ccc3[nH]2)c1	inactive
> 300 µM	–	–	–	O=C(Nc1ccccc1)c1cc2ccccc2s1	inactive
> 300 µM	–	–	–	COC(=O)c1ccccc1NC(=O)c1cc2ccccc2s1	inactive
–	–	–	< 5 µg/mL	NC(=O)c1ccc(NC(=O)c2cccc3ccccc23)cc1	inactive
196 µM	–	–	–	NCc1ccccc1NC(=O)c1ccc(-c2ccccc2)cc1	inactive
193 µM	–	–	5 µg/mL (≈ 15.8 µM)	NC(=O)c1ccccc1NC(=O)c1ccc(-c2ccccc2)cc1	inactive
79.9 µM	–	–	25 µg/mL (≈ 79 µM)	NC(=O)c1cccc(NC(=O)c2ccc(-c3ccccc3)cc2)c1	inactive
167 µM	–	–	–	NCc1ccccc1NC(=O)c1cc2ccccc2s1	inactive
98.3 µM	–	–	5 µg/mL (≈ 16.1 µM)	NCc1ccccc1NC(=O)c1cc2cc([N+](=O)[O-])ccc2o1	inactive
124 µM	–	–	< 5 µg/mL	CC(C)(C)OC(=O)NCc1ccccc1NC(=O)c1ccc(-c2ccccc2)cc1	inactive
–	Insoluble	Nd(Insoluble)	–	NC(=O)c1cccc(NC(=O)c2cc3cc([N+](=O)[O-])ccc3[nH]2)c1	inactive
45.6 µM	–	–	< 5 µg/mL	NC(=O)c1ccccc1NC(=O)c1cc2ccccc2s1	inactive
67.5 µM	–	–	< 5 µg/mL	CC(C)(C)OC(=O)NCc1ccccc1NC(=O)c1ccc2ccccc2n1	inactive
–	–	–	< 5 µg/mL	NC(=O)c1cccc(NC(=O)c2cc3ccccc3s2)c1	inactive
> 300 µM	–	–	–	O=C(Nc1ccccc1)c1ccc2ccccc2c1	inactive
> 300 µM	–	–	–	COC(=O)c1ccccc1NC(=O)c1ccc(-c2ccccc2)cc1	inactive
–	Insoluble	Nd(Insoluble)	–	COC(=O)c1cccc(NC(=O)c2cc3cc([N+](=O)[O-])ccc3[nH]2)c1	inactive
–	Insoluble	Nd(Insoluble)	–	NC(=O)c1ccccc1NC(=O)c1cc2cc([N+](=O)[O-])ccc2[nH]1	inactive
